In brackets after ≈: the same amount, converted by molar mass.
What was measured:
Colony LP19 = assay: Antibiotic susceptibility test; type: cell-based, Lactiplantibacillus Plantarum; conditions: Lactiplantibacillus plantarum, LP19, 24 h, read-out: Minimum inhibitory concentration of the antibiotic to LP19, 96-well, 37 C 24 h, OD600
Text: (§1) To test bacterial susceptibility to antibiotics, such as Aminoglycosides antibiotics, Sulfonamide antibiotics, Quinolone antibiotics, Ampicillin, Cefotaxime, Chloramphenicol, Erythromycin, Rifampicin and Tetracycline, the experimental protocol were as follow. Further, the Quinolone antibiotics comprise Ciprofloxacin, the Aminoglycosides antibiotics comprise Kanamycin and […], and the Sulfonamide antibiotics comprise Sulfamethoxazole. […] The initial absorbance at 600 nm (OD600) of each well was recorded. Then, the 96-well plates were placed at 37° C. and cultured for 24 hours. Next, the OD600 of each well was measured again to determine minimum inhibitory concentration.

Colony LP1 = assay: Antibiotic susceptibility test; type: cell-based, Lactiplantibacillus Plantarum; conditions: Lactiplantibacillus plantarum, LP1, 24 h, read-out: Minimum inhibitory concentration of the antibiotic to LP1, 96-well, 37 C 24 h, OD600
Text: as §1

Colony LP2 = assay: Antibiotic susceptibility test; type: cell-based, Lactiplantibacillus Plantarum; conditions: Lactiplantibacillus plantarum, LP2, 24 h, 96-well, 37 C 24 h, OD600; read-out: Minimum inhibitory concentration of the antibiotic to LP2
Text: as §1

Colony LP5 = assay: Antibiotic susceptibility test; type: cell-based, Lactiplantibacillus Plantarum; conditions: Lactiplantibacillus plantarum, LP5, 24 h, read-out: Minimum inhibitory concentration of the antibiotic to LP5, 96-well, 37 C 24 h, OD600
Text: as §1

Colony PTA22 = assay: Antibiotic susceptibility test; type: cell-based, Lactiplantibacillus Plantarum; conditions: Lactiplantibacillus plantarum, PTA22, 24 h, read-out: Minimum inhibitory concentration of the antibiotic to PTA22, 96-well, 37 C 24 h, OD600
Text: as §1

L. pl 24-2L = conditions: from Georgieva et al., 2015; cited from earlier work
L. pl 24-5D = conditions: from Georgieva et al., 2015; cited from earlier work
L. plantarum 299 = conditions: from Klarin et al., 2019; cited from earlier work
L. plantarum 299v = conditions: from Klarin et al., 2019; cited from earlier work
species L. plantarum = conditions: EFSA (2005); cited from earlier work
Bacillus cereus = assay: Minimum inhibitory concentration and minimum bacterial concentration; type: cell-based; conditions: antibiotics
Procedure: (§2) Minimum inhibitory concentration (MIC) refers to the minimum concentration at which the development of bacteria can be blocked and antibacterial resistance can be observed after cultured. The lower MIC means the better effect on bacteria.
(§3) The supernatants of the cultured colonies described above were collected, as cell-free solutions (CFSs), by centrifuge at 5000 rpm after cultured the colonies in a nutrient broth and shaking at 37° C. for 48 hours.
(§4) Next, 100 μL each of the CFSs and 100 μL bacterial solutions of the pathogenic bacteria were respectively added to each well of a 96-well plate. Thus, the total volume in each well was 200 μL. The tested pathogenic bacteria included Salmonella enterica, Shigella sonnei, Klebsiella pneumoniae, Streptococcus pneumoniae, Bacillus cereus, Staphylococcus aureus, Pseudomonas aeruginosa, and Escherichia coli.
(§5) As well, 100 μL each of the nutrient broth containing Ampicillin or Kanamycin and 100 μL bacterial solutions of the pathogenic bacteria were respectively added to each well of a 96-well plate. Thus, the total volume in each well was 200 μL.
(§6) Then, initial values of OD600 in each well were recorded. Subsequently, the 96-well plates were cultured at 37° C. for 24 hours, and the OD600 values thereof were re-recorded for determining the MICs of each colony described above.
(§7) Finally, 100 μL CFSs of the next three concentrations […] MIC were taken to be plated on nutrient agar and then cultured at 37° C. for 48-72 hours. The concentrations of the CFSs that no colonies grown on nutrient agar were determined to be the minimum bacterial concentration (MBCs).

Escherichia coli (ETEC) = assay: as above; type: cell-based; conditions: antibiotics
Procedure: as §2, §3, §4, §5, §6, §7

Klebsiella pneumoniae = assay: as above; type: cell-based; conditions: antibiotics
Procedure: as §2, §3, §4, §5, §6, §7

Pseudomonas aeruginosa = assay: as above; type: cell-based; conditions: antibiotics
Procedure: as §2, §3, §4, §5, §6, §7

Shigella sonnei = assay: as above; type: cell-based; conditions: antibiotics
Procedure: as §2, §3, §4, §5, §6, §7

Staphylococcus aureus = assay: as above; type: cell-based; conditions: antibiotics
Procedure: as §2, §3, §4, §5, §6, §7

Streptococcus pneumoniae = assay: as above; type: cell-based; conditions: antibiotics
Procedure: as §2, §3, §4, §5, §6, §7

[1] = plated on nutrient agar 48-72 h

With `CN(C)[C@@H]1C(O)=C(C(N)=O)C(=O)[C@@]2(O)C(O)=C3C(=O)c4c(O)cccc4[C@@](C)(O)[C@H]3C[C@@H]12` [Tetracycline] the MIC (Colony LP19) was 32 µg/mL (≈ 72 µM), the MIC (Colony LP1) was 32 µg/mL (≈ 72 µM) and the MIC (Colony LP2) was 32 µg/mL (≈ 72 µM). It also gave an MIC (Colony LP5) of 32 µg/mL (≈ 72 µM) and an MIC (Colony PTA22) of 64 µg/mL (≈ 144 µM).
With `O=C(N[C@H](CO)[C@H](O)c1ccc([N+](=O)[O-])cc1)C(Cl)Cl` [Chloramphenicol] the MIC (Colony LP19) was 16 µg/mL (≈ 49.5 µM), the MIC (Colony LP1) was 8 µg/mL (≈ 24.8 µM) and the MIC (Colony LP2) was 8 µg/mL (≈ 24.8 µM). For the same compound, the MIC (Colony LP5) was 16 µg/mL (≈ 49.5 µM), the MIC (Colony PTA22) was 32 µg/mL (≈ 99 µM) and the “Minimum inhibitory concentration of the antibiotic to L. pl 24-2L” value (L. pl 24-2L) was 4 µg/mL. For the same compound, the “Minimum inhibitory concentration of the antibiotic to L. pl 24-5D” value (L. pl 24-5D) was 6 µg/mL, the “Minimum inhibitory concentration of the antibiotic to L. plantarum 299” value (L. plantarum 299) was 2 µg/mL and the “Minimum inhibitory concentration of the antibiotic to L. plantarum 299v” value (L. plantarum 299v) was 2 µg/mL. The “EFSA, MIC breakpoints species L. plantarum” value (species L. plantarum) was 8 µg/mL.
In the case of `CO[C@H]1/C=C/O[C@@]2(C)Oc3c(C)c(O)c4c(O)c(c(/C=N/N5CCN(C)CC5)c(O)c4c3C2=O)NC(=O)/C(C)=C\C=C\[C@H](C)[C@H](O)[C@@H](C)[C@@H](O)[C@@H](C)[C@H](OC(C)=O)[C@@H]1C` [Rifampicin], the MIC (Colony LP19) is reported as 2 µg/mL (≈ 2.43 µM), the MIC (Colony LP1) is reported as 1 µg/mL (≈ 1.22 µM) and the MIC (Colony LP2) is reported as 1 µg/mL (≈ 1.22 µM). The MIC (Colony LP5) was 1 µg/mL (≈ 1.22 µM) and the MIC (Colony PTA22) was 2 µg/mL (≈ 2.43 µM).
`CO/N=C(\C(=O)N[C@@H]1C(=O)N2C(C(=O)O)=C(COC(C)=O)CS[C@H]12)c1csc(N)n1` [Cefotaxime] gave an MIC (Colony LP19) of less than 0.125 µg/mL, an MIC (Colony LP1) of less than 0.125 µg/mL and an MIC (Colony LP2) of less than 0.125 µg/mL. For the same compound, the MIC (Colony LP5) was less than 0.125 µg/mL, the MIC (Colony PTA22) was less than 0.125 µg/mL and the “Minimum inhibitory concentration of the antibiotic to L. plantarum 299” value (L. plantarum 299) was 0.094 µg/mL. For the same compound, the “Minimum inhibitory concentration of the antibiotic to L. plantarum 299v” value (L. plantarum 299v) was 0.094 µg/mL.
Compound `CCN1CCN(c2cc3c(cc2F)c(=O)c(C(=O)O)cn3C2CC2)CC1` [Enrofloxacin] has an MIC (Bacillus cereus; 37 C 24 h, OD600) of 8 µg/mL (≈ 22.3 µM), an MBC (Bacillus cereus; [1]) of 8 µg/mL (≈ 22.3 µM) and an MIC (Escherichia coli (ETEC); 37 C 24 h, OD600) of 4 µg/mL (≈ 11.1 µM). It also gave an MBC (Escherichia coli (ETEC); [1]) of 8 µg/mL (≈ 22.3 µM), an MIC (Klebsiella pneumoniae; 37 C 24 h, OD600) of 32 µg/mL (≈ 89 µM) and an MBC (Klebsiella pneumoniae; [1]) of 32 µg/mL (≈ 89 µM). The MIC (Pseudomonas aeruginosa; 37 C 24 h, OD600) was 16 µg/mL (≈ 44.5 µM), the MBC (Pseudomonas aeruginosa; [1]) was 16 µg/mL (≈ 44.5 µM) and the MIC (Shigella sonnei; 37 C 24 h, OD600) was less than 0.125 µg/mL. It also gave an MBC (Shigella sonnei; [1]) of less than 0.125 µg/mL, an MIC (Staphylococcus aureus; 37 C 24 h, OD600) of 1 µg/mL (≈ 2.78 µM) and an MBC (Staphylococcus aureus; [1]) of 1 µg/mL (≈ 2.78 µM). For the same compound, the MIC (Streptococcus pneumoniae; 37 C 24 h, OD600) was 0.25 µg/mL (≈ 0.696 µM), the MBC (Streptococcus pneumoniae; [1]) was 0.5 µg/mL (≈ 1.39 µM) and the MIC (Colony LP19) was 64 µg/mL (≈ 178 µM). The MIC (Colony LP1) was 64 µg/mL (≈ 178 µM), the MIC (Colony LP2) was 64 µg/mL (≈ 178 µM) and the MIC (Colony LP5) was 64 µg/mL (≈ 178 µM). It also gave an MIC (Colony PTA22) of 64 µg/mL (≈ 178 µM).
